According to patent US20260159497A1, “SOLID FORMS OF A COMPLEMENT FACTOR B INHIBITOR” (Novartis Pharma AG, priority 2022, published 2026):
Read-outs that look alike come from different tables or passages of the source.

Columns and labels:
[1] = Dynamic vapor sorption (DVS) mass change; format: physicochemical; settings: Table 6
Excerpt: [table] The mass change by DVS isotherm (2 cycles 40-0-95-0-40% RH) are in the tables below. The mass change is based on the dry weight of each.

[2] = Grinding and wet granulation; format: physicochemical
Excerpt: Method: Granulate was obtained in solid-state forms. […] Dry the wet-cake under vacuum or at atmospheric pressure. Evaluate solid form and degree of crystallinity by e.g. XRPD and/or DSC.

[3] = Compression stability (XRPD after compression); format: physicochemical; settings: 4 tons of compression for 5 min
Excerpt: Method: […] Afterwards, characterize the sample by XRPD to detect any change in the solid state.

[4] = Stability of Forms A and B under stress conditions (temperature/humidity, capsules, light)
[5] = Solubility in water and biorelevant buffers at 25° C.; format: physicochemical; settings: for XRPD of residual solid after solubility test / pH of solubility sample (pH) / solubility at 24 h: 25° C., 24 h; for solubility at 24 h: thermodynamic from solid, read-out: Solubility (mg/mL) S
Procedure: Purchase sodium taurocholate (NaTC) from supplier. Account for assay. Add amount corresponding to 3 mM to PBS V1. Stir until dissolved. Equilibrate 1 h at 25° C. or 37° C. before use. Dispose after 48 h.
Purchase FaSSIF-V2 from supplier (biorelevant.com). Amount added to PBS-V1 according to Table 1. Stir until dissolved. Equilibrate 1 h at 25° C. or 37° C. before use. Dispose after 48 h.
Purchase FeSSIF-V2 from supplier (biorelevant.com). Amount added to PBS-V1 according to Table 1. Stir until dissolved. Equilibrate 1 h at 25° C. or 37° C. before use. Dispose after 48 h.

COc1cc(C)c2[nH]ccc2c1CN1CCC2(C[C@H]1c1ccc(C(=O)O)cc1)CC(F)(F)C2.Cc1ccc(S(=O)(=O)O)cc1 [Form B, (S)-4-(2,2-difluoro-7-((5-methoxy-7-methyl-1H-indol-4-yl)methyl)-7-azaspiro[3.5]nonan-6-yl)benzoic acid p-toluene sulfonate]
Mass change by DVS, 1st Sorption (%) ([1]; DVS at 25 degree C., 70% RH): 2.45%
Mass change by DVS, 2nd Desorption (%) ([1]; DVS at 25 degree C., 70% RH): 2.47%
Mass change by DVS, 1st Sorption (%) ([1]; DVS at 25 degree C., 80% RH): 2.53%
Mass change by DVS, 2nd Desorption (%) ([1]; DVS at 25 degree C., 80% RH): 2.54%
Mass change by DVS, 1st Sorption (%) ([1]; DVS at 25 degree C., 90% RH): 2.60%
Mass change by DVS, 2nd Desorption (%) ([1]; DVS at 25 degree C., 90% RH): 2.61%
Mass change by DVS, 1st Sorption (%) ([1]; DVS at 25 degree C., 95% RH): 2.67%
Mass change by DVS, 2nd Desorption (%) ([1]; DVS at 25 degree C., 95% RH): 2.67%
Mass change by DVS, 1st Desorption (%) ([1]; DVS at 40 degree C., 0% RH): 0.00%
Mass change by DVS, 1st Sorption (%) ([1]; DVS at 40 degree C., 0% RH): 0.00%
Mass change by DVS, 2nd Desorption (%) ([1]; DVS at 40 degree C., 0% RH): −0.01%
Mass change by DVS, 2nd Sorption (%) ([1]; DVS at 40 degree C., 0% RH): −0.01%
Mass change by DVS, 1st Desorption (%) ([1]; DVS at 40 degree C., 10% RH): 0.97%
Mass change by DVS, 1st Sorption (%) ([1]; DVS at 40 degree C., 10% RH): 0.96%
Mass change by DVS, 2nd Desorption (%) ([1]; DVS at 40 degree C., 10% RH): 0.97%
Mass change by DVS, 2nd Sorption (%) ([1]; DVS at 40 degree C., 10% RH): 0.95%
Mass change by DVS, 1st Desorption (%) ([1]; DVS at 40 degree C., 20% RH): 1.61%
Mass change by DVS, 1st Sorption (%) ([1]; DVS at 40 degree C., 20% RH): 1.59%
Mass change by DVS, 2nd Desorption (%) ([1]; DVS at 40 degree C., 20% RH): 1.60%
Mass change by DVS, 2nd Sorption (%) ([1]; DVS at 40 degree C., 20% RH): 1.59%
Mass change by DVS, 1st Desorption (%) ([1]; DVS at 40 degree C., 30% RH): 1.92%
Mass change by DVS, 1st Sorption (%) ([1]; DVS at 40 degree C., 30% RH): 1.90%
Mass change by DVS, 2nd Desorption (%) ([1]; DVS at 40 degree C., 30% RH): 1.91%
Mass change by DVS, 2nd Sorption (%) ([1]; DVS at 40 degree C., 30% RH): 1.90%
Mass change by DVS, 1st Desorption (%) ([1]; DVS at 40 degree C., 40% RH): 2.10%
Mass change by DVS, 1st Sorption (%) ([1]; DVS at 40 degree C., 40% RH): 2.09%
Mass change by DVS, 2nd Desorption (%) ([1]; DVS at 40 degree C., 40% RH): 2.09%
Mass change by DVS, 2nd Sorption (%) ([1]; DVS at 40 degree C., 40% RH): 2.09%
Mass change by DVS, 1st Sorption (%) ([1]; DVS at 40 degree C., 50% RH): 2.21%
Mass change by DVS, 2nd Desorption (%) ([1]; DVS at 40 degree C., 50% RH): 2.22%
Mass change by DVS, 1st Sorption (%) ([1]; DVS at 40 degree C., 60% RH): 2.28%
Mass change by DVS, 2nd Desorption (%) ([1]; DVS at 40 degree C., 60% RH): 2.29%
Mass change by DVS, 1st Sorption (%) ([1]; DVS at 40 degree C., 70% RH): 2.34%
Mass change by DVS, 2nd Desorption (%) ([1]; DVS at 40 degree C., 70% RH): 2.37%
Mass change by DVS, 1st Sorption (%) ([1]; DVS at 40 degree C., 80% RH): 2.40%
Mass change by DVS, 2nd Desorption (%) ([1]; DVS at 40 degree C., 80% RH): 2.44%
Mass change by DVS, 1st Sorption (%) ([1]; DVS at 40 degree C., 90% RH): 2.49%
Mass change by DVS, 2nd Desorption (%) ([1]; DVS at 40 degree C., 90% RH): 2.49%
Mass change by DVS, 1st Sorption (%) ([1]; DVS at 40 degree C., 95% RH): 2.52%
Mass change by DVS, 2nd Desorption (%) ([1]; DVS at 40 degree C., 95% RH): 2.52%
crystallinity from XRPD pattern after grinding ([2]; after grinding): crystallinity decrease
form change after grinding and wet granulation ([2]; dry grinding (2 min and 5 min) and wet granulation (water and ethanol)): did not lead to any form change
form change in XRPD after compression [3]: no form change
stability in HPMC and HGC capsules ([4]; 50° C. with 11% and 75% RH for 2 weeks): chemically and physically stable
degradation under light stress ([4]; 1200 kLux light stress): about 0.2%
discoloration under light stress ([4]; 1200 kLux light stress): slight discoloration
form change by XRPD after humidity exposure ([4]; exposed to 80% or 92% RH for 24 hrs): no change
chemical stability in bulk state ([4]; stored at 50° C. with 11% RH or 75% RH for 1 week): chemically stable
degradation in bulk state ([4]; stored at 80° C. with 75% RH): about 0.1%
discoloration in bulk state ([4]; stored at 80° C. with 75% RH): slight discoloration
chemical stability in bulk state ([4]; stored at 80° C./11% RH for 1 week): chemically stable
polymorphic form in the stress conditions ([4]; temperature/humidity and light stress conditions): no change
XRPD of residual solid after solubility test ([5]; FaSSGF, pH 1.6): No change
pH of solubility sample (pH) ([5]; FaSSGF, pH 1.6): 1.77
pH of solubility sample (pH) ([5]; PBS-V1 + 3 mM NaTC, pH 6.5): 6.42
XRPD of residual solid after solubility test ([5]; PBS-V1 + 0.3 FeSSIF-V2, pH 6.5): Form A
pH of solubility sample (pH) ([5]; PBS-V1 + 0.3 FeSSIF-V2, pH 6.5): 6.12
XRPD of residual solid after solubility test ([5]; PBS-V1 + 2.0 FeSSIF-V2, pH 6.5): Form A
pH of solubility sample (pH) ([5]; PBS-V1 + 2.0 FeSSIF-V2, pH 6.5): 6.19
pH of solubility sample (pH) ([5]; PBS-V1 + FaSSIF-V2, pH 6.5): 6.35
XRPD of residual solid after solubility test ([5]; PBS-V1 + FeSSIF-V2, pH 6.5): Form A
pH of solubility sample (pH) ([5]; PBS-V1 + FeSSIF-V2, pH 6.5): 6.40
solubility at 24 h ([5]; fassgf or other biorelevant, FaSSGF, pH 1.6): 0.49 mg/mL
solubility at 24 h ([5]; fassgf or other biorelevant, PBS-V1 + 3 mM NaTC, pH 6.5): > 2 mg/mL
solubility at 24 h ([5]; fassgf or other biorelevant, PBS-V1 + 0.3 FeSSIF-V2, pH 6.5): 0.1 mg/mL
solubility at 24 h ([5]; fassgf or other biorelevant, PBS-V1 + 2.0 FeSSIF-V2, pH 6.5): 0.31 mg/mL
solubility at 24 h ([5]; PBS-V1 + FaSSIF-V2, pH 6.5): > 2 mg/mL
solubility at 24 h ([5]; PBS-V1 + FeSSIF-V2, pH 6.5): 0.2 mg/mL
solubility at 24 h ([5]; water): 0.39 mg/mL
solubility at 24 h compared with Form A ([5]; water and biorelevant buffers at 25° C., all media): significantly increased solubility
pH of solubility sample (pH) ([5]; water): 3.89
